Data taken from patent US20150315202A1, “CHLORIN DERIVATIVE USEFUL IN PHOTODYNAMIC THERAPY AND DIAGNOSIS” (RMW CHO GROUP LIMITED, priority 2012, published 2015).
“Also recorded” adds a separate entry of the source. Where two headings read alike, the source gives them in different places.

Experiments:
S180 sarcoma = assay: Photodynamic therapy study with mice with subcutaneous S180 sarcoma; type: in vivo, Kunming mice; details: for Pathological changes of tumour tissues (HE staining): 24 hours after the treatment; for Living tumour cells versus control group D (FCM) / Proportions of apoptotic and necrotic tumour cells versus control group D (FCM): 24 hours after treatments; for Mean tumour volume versus control group D: 21 days after the treatments, P<0.05; for Tumour appearance after treatment (eschars): after treatments; for Sizes of tumours versus control group D: six days after the treatments; for Tumour inhibition rate: tail vein: Duteroporphyrin 10 mg/kg, chlorin e4 sodium 20 mg/kg, 5-ALA 100 mg/kg, laser 20 minutes, 180 J/cm^2
Protocol: In this experiment the effects of photodynamic therapy mediated by three different photosensitizers, namely Duteroporphyrin, chlorin e4 sodium and 5-ALA, on mouse S180 sarcoma were observed. Duteroporphyrin and 5-ALA are porphyrin derivatives.
40 Kunming mice with well grown subcutaneous S180 sarcoma were randomly divided into four groups: (A) Duteroporphyrin group (10 mg/kg), (B) chlorin e4 sodium group (20 mg/kg), (C) 5-ALA group (100 mg/kg) and (D) blank control group. The mice in groups A and B were subjected to irradiation 8-10 hours after tail vein injection of the photo sensitizers, while the mice in group C were subjected to irradiation 3 hours after tail vein injection of the photosensitizer. A laser with a wavelength of 630 nm was used for groups A and C, while a duel-frequency laser with wavelengths of 660 nm and 760 nm was used for group B. The local tumour sites were irradiated vertically, with the diameter of the laser spots being 1.2-1.5 cm. The whole tumour and 3-5 mm of normal tissue around the tumour were covered by the laser. The lasers were applied to groups A, B and C for 20 minutes, with a power density of 150 mW/cm^2 and an energy density of 180 J/cm^2. The mice in control group D were not subjected to irradiation.

[1] = air-saturated water and ethanol; literature value of the reference; cited from earlier work
[2] = literature value of the reference, cited from earlier work
[3] = test system: indomethacin-induced gastric lesions; details: rats; cited from earlier work
[4] = test system: TAA- or CCl4-induced acute liver injuries; details: mice; cited from earlier work
[5] = test system: advanced non-small cell lung cancer; assay: Clinical study with patients suffering from advanced non-small cell lung cancer; type: in vivo, human
Protocol: Through pathology or cytology diagnosis, 66 advanced non-small cell lung cancer patients were selected and randomly divided into two groups. Group A had 32 patients who were treated with chlorin e4 sodium. Group B had 34 patients who were treated with both chemotherapy and radiotherapy.
For group A, chlorin e4 sodium was administered at a dosage of 2 mg per kilogram of body weight, with two thirds administered by inhalation and one third administered orally. After the irradiation target(s) had been determined, an optical fibre for laser treatment purposes was guided into the lung tumor(s) via an interstitial procedure. Irradiation light intensity was 200 J/cm^2, irradiation power was 1,000 mW, and irradiation lasted for eight to ten minutes. Laser irradiation into the tumor was two to five centimeters in depth. Irradiation was either performed phase by phase (sub-paragraph treatment) based on tumor size or performed repeatedly.
For group B, for the radiotherapy, a 15 MV X-ray radiation therapy irradiation field covered primary lung tumor lesion(s) and mediastinal lymphatic drainage area, with a dosage of 65-70 Gy, administered on every first day in a week of radiotherapy. For the chemotherapy, 20 mg cisplatin was administered by intravenous application.

[6] = treatment of various human ailments; cited from earlier work
[7] = group A (32 patients): chlorin e4 sodium 2 mg/kg inhalation and oral + interstitial laser, group B (34 patients): cisplatin 20 mg iv + radiotherapy

Compound | Pathological changes of tumour tissues (HE staining) (S180 sarcoma) | Living tumour cells versus control group D (FCM) (S180 sarcoma) | Proportions of apoptotic and necrotic tumour cells versus control group D (FCM) (S180 sarcoma) | Mean tumour volume versus control group D (S180 sarcoma) | Tumour appearance after treatment (eschars) (S180 sarcoma) | Sizes of tumours versus control group D (S180 sarcoma) | Tumour inhibition rate (S180 sarcoma) | other results
NCC(=O)CCC(=O)O [5-ALA] | a wide range of tumour necrosis, tumour vascular disruption and neutrophil infiltration | obviously fewer | a lot higher | statistically significantly smaller | thinner and brownish red in colour | no obvious difference | 37.2% | Recovery of skins and fur (S180 sarcoma; after the eschars had fallen off): fully recovered; also recorded: fastest in skin repairing
CC1=Cc2cc3[nH]c(cc4nc(cc5[nH]c(cc1n2)cc5C)C(C)=C4CCC(=O)O)c(CCC(=O)O)c3C [Duteroporphyrin] | a wide range of tumour necrosis, tumour vascular disruption and neutrophil infiltration | obviously fewer | a lot higher | statistically significantly smaller | Black eschars | no obvious difference | 62.5% | Recovery of skins and fur (S180 sarcoma; mouse, in vivo): fully recovered
O=S(=O)(O)c1ccc(-c2c3nc(c(-c4ccc(S(=O)(=O)O)cc4)c4ccc([nH]4)c(-c4ccc(S(=O)(=O)O)cc4)c4nc(c(-c5ccc(S(=O)(=O)O)cc5)c5ccc2[nH]5)C=C4)C=C3)cc1 [TPPS, m-tetrakis(p-sulfonatophenyl)porphine] | – | – | – | – | – | – | – | Fluorescence quantum yield [1]: 0.08; Quantum yield of singlet oxygen photogeneration ([2]; ethanol and detergent containing water): 0.7; Quantum yield of singlet oxygen photogeneration ([2]; water): 0.6
C=Cc1c(C)c2cc3nc(c(C)c4[nH]c(cc5nc(cc1[nH]2)C(C)=C5CC)c(C)c4C(=O)O)[C@@H](CCC(=O)O)[C@@H]3C [chlorin e4] | – | – | – | – | – | – | – | Effect against indomethacin-induced gastric lesions [3]: protective effect; Effect against TAA- or CCl4-induced acute liver injuries [4]: protective effect
N.N.[Cl][Pt][Cl] [cisplatin, reference compound] | – | – | – | – | – | – | – | One year survival rate [5, 7]: 70.60%; Two years survival rate [5, 7]: 32.35%; Combined complete and partial remission rate ([5]; group A: chlorin e4 sodium 2 mg/kg + interstitial laser, group B: cisplatin 20 mg iv + radiotherapy): 21.30%
tri-sodium copper(II) chlorin e6 | – | – | – | – | – | – | – | Toxicity and side effects [6]: no evidence of toxicity, skin sensitization or other serious side effects
